Assay results reported in US5705649A, “Protein staining compositions and methods” (Promega Corporation, priority 1995, dated 1998).

How the values were obtained:
[1] = test system: Promega Mid-Range Molecular Weight Markers; experiment: Enhancement of staining of proteins in SDS-PAGE gels in 5% acetic acid
Protocol: The gels described above were placed in 5% acetic acid following the termination of the electrophoretic separation. Within one to two minutes the gel developed a light green background but the protein bands dramatically darkened to a green color. […] Again, the color of the background darkened to a greater degree when greater concentrations of dye were used.
The gels above (from Example 7) were placed in 5% acetic acid following termination of the electrophoretic separation. Within 1-2 minutes, all the gels turned light green and the color of the stained bands intensified such that all proteins were visible--even in the lane containing 0.25 μg protein/band.
The gels above (Example 9) were placed in 5% acetic acid following termination of the electrophoretic separation. Within 1-2 minutes, all the gels turned light green and the color of the stained bands intensified such that all proteins were visible--even in the lanes containing 0.25 μg protein/band.

[2] = test system: Promega Mid Range Molecular Weight Markers; experiment: Rapid enhancement of the staining of proteins with low residual color in the gel
Protocol: In order to develop such a method, several 10% SDS-PAGE gels made as described in Example 5 were made and loaded with samples made as described therein with the following changes: the sample loading size was reduced to 5 μl; and the solutions were made to contain 1.0, 0.50, 0.25, and 0.125 μg of each protein band of Promega Mid Range Molecular Weight Markers in 5 μl of the sample. Each gel was loaded such that duplicate panels of samples containing the various concentrations of protein were present in 4 consecutive lanes. The gels were run as described above and the gel was cut between the duplicate sample panels. A gel segment containing one panel was placed in each of the following solutions: 30 ml of 2% glacial acetic acid (A); 30 ml of 2% glacial acetic acid in 10% methanol (B); 2% glacial acetic acid in 20% methanol (C); 2% glacial acetic acid in 30% methanol (D); 30 ml of water (E); 30 ml of 10% methanol (F); 30 ml of 20% methanol (G); and 30 ml of 30% methanol (H). The solutions were incubated with the gel segments for 10 minutes at room temperature and gently rotated at 40 rpm to prevent settling of the gel segments in the containers. […]
Protocols using other dyes that have been developed for the sensitive detection of protein sometimes employ the incubation of the gel in solutions containing the stain followed by incubation of the gel in solutions lacking the stain. In order to determine if such a protocol could be used to allow even lower levels of protein to be detected using Promega Green 1, the following study was performed. […]

protein (BSA) = experiment: Sensitive solution protein quantitation assay; design: species or system bovine; settings: 0.5M tris base, 3 hours
Protocol: In order to conclusively determine a format for the sensitive quantitation of protein in solution using Promega Green 1, Promega Green 1 stock solution was diluted at ratios of 1:250 (v/v) and 1:1000 (v/v) into 0.5M tris base containing 0, 5, 10, 20, 40, 60, 80, and 100 μg protein (BSA) per ml of solution. […]

[3] = test system: Promega Mid-Range Molecular Weight Standards; experiment: Quantitation of proteins separated by SDS-PAGE, sensitivity overall; settings: extracted bands
Protocol: A 10% SDS-PAGE gel was made as described in the Example 5. Promega Mid-Range Molecular Weight Standards were diluted into loading buffer to produce solutions containing 2.0, 1.0, 0.5, and 0.25 μg of protein per band in 5 μl of solution. Duplicate 5 μl solutions of each of these solutions were loaded into 1 of the 10 sample wells in the gel after the solutions were heated at 95° C. for 10 minutes. The gel was then electrophoresed at 160 V until the running dye just eluted from the bottom of the gel. The gel was destained, and signal from stained protein enhanced, for 90 minutes in 30% methanol, 4% acetic acid.
One of the pair of duplicate bands for the 97.4, 66.2, 55.0 and 42.7 kilodalton standards from the lanes containing 2.0, 1.0, 0.5, and 0.25 μg of protein per band were excised with a razor blade as were two control gel segments from regions of the gel not containing protein. The excised segments were placed in individual 1.5 ml Eppendorf tubes containing 2% SDS and allowed to incubate at room temperature for 72 hours. After this time, the solutions were removed from the extracted segments and acetic acid was added to 2% (v/v) final concentration. The absorption of the solutions at […] was then measured.

- Absorption (protein (BSA); dye 1:250, protein 0 μg/ml): 0.543
- Absorption (protein (BSA); dye 1:250, protein 5 μg/ml): 0.515
- Absorption (protein (BSA); dye 1:250, protein 10 μg/ml): 0.472
- Absorption (protein (BSA); dye 1:250, protein 20 μg/ml): 0.427
- Absorption (protein (BSA); dye 1:250, protein 40 μg/ml): 0.386
- Absorption (protein (BSA); dye 1:250, protein 60 μg/ml): 0.358
- Absorption (protein (BSA); dye 1:250, protein 80 μg/ml): 0.342
- Absorption (protein (BSA); dye 1:250, protein 100 μg/ml): 0.317
- Absorption (protein (BSA); dye 1:1000, protein 0 μg/ml): 0.079
- Absorption (protein (BSA); dye 1:1000, protein 5 μg/ml): 0.069
- Absorption (protein (BSA); dye 1:1000, protein 10 μg/ml): 0.059
- Absorption (protein (BSA); dye 1:1000, protein 20 μg/ml): 0.051
- Absorption (protein (BSA); dye 1:1000, protein 40 μg/ml): 0.048
- Absorption (protein (BSA); dye 1:1000, protein 60 μg/ml): 0.047
- Absorption (protein (BSA); dye 1:1000, protein 80 μg/ml): 0.044
- Absorption (protein (BSA); dye 1:1000, protein 100 μg/ml): 0.043
SMILES: CCCCCCCC(=O)N(c1ccc(OCC)cc1)c1ccc(C(=C2C=CC(=[N+](CC)Cc3cccc(S(=O)(=O)[O-])c3)C=C2)c2ccc(N(CC)Cc3cccc(S(=O)(=O)O)c3)cc2)cc1 [Promega Green 1]
- visibility of protein bands after enhancement ([1]; 5% acetic acid, one to two minutes): All of the protein bands in all the lanes having sample were now visible
- staining after overnight incubation ([1]; 5% acetic acid, overnight): appeared to darken slightly
- overall performance ([1]; Examples 5-10): most desirable properties of the compounds tested
- amount of protein in a band that can be detected ([2]; methanol/acetic acid solutions A-H, 10 min then 60 min): less than 125 ng
- lowest protein per band visible ([2]; post-incubation with dye 1:5000 and 1:10,000 in 30-50% methanol, then without dye): 62.5 ng
- background staining ([2]; solution set H (30% methanol, then 2% acetic acid in 30% methanol)): very little background staining remaining
- lowest amount of protein measured quantitatively [3]: 250 ng
